Measurements published in patent publication US10328075B2, “Method of treatment and compounds for use therein” (Baker Heart and Diabetes Institute, priority 2015, dated 2019).

Tested on: adult mouse cardiac fibroblasts
Experiment: TGF-β stimulation of adult mouse cardiac fibroblasts, CTGF and IL-1β expression
Format: cell-based
Details: 10 μM, 24 h TGF-β
Procedure: Isolation and culture of primary rat cardiomyocytes and mouse cardiac fibroblasts: All materials used for cell isolation were of tissue culture grade. Isolation of primary neonatal rat cardiac cardiomyocytes (NRCM) and adult mouse cardiac fibroblasts (AMCF) was performed by serial enzymatic digestion, as previously described (Irvine et al 2012 & Irvine et al. 3) NRCM were plated onto either 12-well tissue culture plates (for simulated ischemia-reperfusion, via hypoxia-reoxygenation, H-R) or 60 mm tissue culture dishes (for gene expression) at a density of 1.3×10^5 cells/cm^2, in the presence of 1% 5-bromo-2′-deoxyuridine. AMCF (passage #3) were seeded onto 60 mm tissue culture dishes at 9.5×10^4 cells/cm^2 and allowed to grow to 80% confluence prior to study. […] At the end of hypoxia, Kreb's buffer was replaced with fresh, sterile-filtered Kreb's buffer, in the presence or absence of FPR agonists Cmpd17b, Cmpd43 (both 1 μM or vehicle, and NRCM were subjected to 48 h reoxygenation at 37° C. At the end of 48 h reoxygenation, NRCM supernatant was collected for assessment of cardiomyocyte injury. Cardiomyocyte release of cTnI was determined using a commercially available, high-sensitivity rat cTnI ELISA kit (Life Diagnostic Inc.) as per the manufacturer's instructions. Separate NRVM on 60 mm dishes were incubated for 48 h at 37° C. in serum-free DMEM, in the presence or absence of FPR agonists Cmpd17b, Cmpd43 (both 1 μM) or vehicle. At the end of 48 h, RNA was extracted and real-time PCR performed (as described previously (Huynh et al. 2012)), to determine the relative gene expression of rat Fprs (rFpr1, rFpr2 and rFpr3, expressed as the threshold cycle number Ct subtracted from the maximum cycle number utilized, 40). […]
Cardiomyocytes injury responses in vitro: Neonatal rat cardiomyocytes and adult mouse cardiofibroblasts were isolated and cultured as described (online Supplement). […] Cardiomyocyte injury was assessed by measurement of cardiac cTnI in cardiomyocyte supernatant. […]

COc1cccc(Cc2cc(C)nn(C(C)C(=O)Nc3ccc(Br)cc3)c2=O)c1 (stereo not drawn) [BIDI-001, N-(4-bromophenyl)-2-[5-(3-methoxybenzyl)-3-methyl-6-oxo-6H-pyridazin-1-yl]-propionamide]
TGF-β-induced pro-inflammatory IL-1β response in cardiofibroblasts: not

CC(C)C1C(NC(=O)Nc2ccc(Cl)cc2)C(=O)N(c2ccccc2)N1C (stereo not drawn) [BIDI-002]
Pro-fibrotic CTGF response to TGF-β in cardiofibroblasts: remained significant | TGF-β-induced pro-inflammatory IL-1β response in cardiofibroblasts: tended to persist
